Measured values as given in patent EP3925667A1, “SELECTIVE TMPRSS2 INHIBITORS AND MEDICAL USE THEREOF” (priority 2020, dated 2021).
Structures can show the parent of a compound that is named as a salt. Where two headings read alike, the source gives them in different places.

Legend:
[1] = target: T1, Recomb. Human Thrombin (Homo sapiens, UniProt P00734); assay: Protease Thrombin inhibition assay, chromogenic substrate D-Phe-Homopro-Arg-pNA; assay type: biochemical
T1 construct: purchased R&D systems 1473-SE-010
Description: (§1) Protease Thrombin inhibiton assay - Calculation of IC50 values
(§2) • Dilute and aliquote 2.1 mg of reference substrate to a concentration of c = 2000 µM in TNC. Dilute and aliquote further to a concentration of c = 200 µM in TNC buffer. Endconcentration in well: c = 100 µM.
(§3) • Inhibitor was diluted with pure DMSO to a concentration of 10 mM • This 10 mM stock solution was further diluted:
(§4) • 25 mM Tris, 150 mM NaCl, 5 mM CaCl2, 0,01% Triton X-100, pH = 8 (stored at 8°C)
(§5) • Per well: add 50 µl of Thrombin/TNC solution (c = 0.04 µg/µl), add 1 µl of inhibitor. • Incubate for 30 minutes at room temperature • After incubation, add […] of c = 200 µM reference substrate Endconcentration of substances per well: c = 100 µM of reference substrate, c = 0.002 µg of […] solution, 1% DMSO
(§6) • Graph pad prism 7 was used to analyze the data. The velocity (change of absorbance over time) was plotted against the concentration. A non linear regression was performed with the following equation: [inhibitor] vs. response - Variable slope (four parameters)

[2] = target: T2, Recomb. Human Coag. Factor Xa protein (Homo sapiens, UniProt P00742); assay: Protease Factor Xa inhibition assay, chromogenic substrate Bz-Ile-Glu-Gly-Arg-pNA; assay type: biochemical; conditions: 0.35 nM Factor Xa, 200 µM reference substrate, 30 minutes preincubation, absorption 405 nm, 25°C
T2 construct: purchased Bio-Techne GmbH 1063-SE-010
Description: (§7) Protease Factor Xa inhibiton assay - Calculation of IC50 values
(§8) Recomb. Human Coag. Factor Xa protein, CF: Bought 09.12.2020; Art. 1063-SE-010; Company: Bio-Techne GmbH
(§9) • Reconstitute at 100 µg/ml in sterile 25 mM MES, 150 mM NaCl, 5 mM CaCl2, pH6 • Diluted to a stock solution of 1000 nM with TNC buffer • This stock solution was further diluted with TNC buffer to a concentration of 35 nM and aliquoted. Stored at -20°C. Endconcentration in well: c = 0.35 nM
• Delivered: 5mg. Dilute and aliquote reference substrate to a concentration of 10 mM in pure DMSO.
as §3, §4
(§10) • Total volume per well: 100µl • Temperature: 25°C • Kinetic interval: every 2 minutes • Absorption: 405 nm • Number of flashes: 25 • Shaking before measurememt: 3s • Shaking amplitude: 5 mm
(§11) • Per well: add 97 µl TNC buffer, add 1 µl of c = 35 nM solution of Factor Xa, add 1 µl of inhibitor • Incubate for 30 minutes at room temperature • After incubation, add 1 µl of c = 10 mM reference substrate Endconcentration of substances per well: c = 200 µM of reference substrate, c = 0.35 nM of Factor Xa solution, 2% DMSO
as §6, with “Graph” for “• Graph”, “parameters) Table 1. IC50 values of inventive inhibitors with respect to TMPRSS2, thrombin and Factor Xa” for “parameters)”

[3] = target: T1, Recomb. Human Thrombin; assay: Protease Thrombin inhibition assay, chromogenic substrate D-Phe-Homopro-Arg-pNA; assay type: biochemical; conditions: 30 minutes preincubation at room temperature, 100 µM reference substrate, absorption 405 nm, 25°C
Description: as §1
Protease: Recomb. Human Thrombin, Bought 30.01.2020; Art. 1473-SE-010; Company: R&D systems Reference substrate: D-Phe-Homopro-Arg-pNA; Company: Bachem; Art no.: 4008145.0050
• Reconstitute at 100 µg/ml (1428.57 nM) in sterile 50 mM HEPES and 640 mM NaCl • Diluted to a stock solution c = 0.04 µg/µl with TNC buffer
as §2, §3, §4, §10, §5, §6

[4] = tested on: pseudotyped particle LV(Luc)-CoV2 in CaCo-2 cells; conditions: 2 h
[5] = target: T2, Recomb. Human Coag. Factor Xa protein; assay: Protease Factor Xa inhibition assay, chromogenic substrate Bz-Ile-Glu-Gly-Arg-pNA; assay type: biochemical; conditions: 0.35 nM Factor Xa, 200 µM reference substrate, 30 minutes preincubation, absorption 405 nm, 25°C; remark: listed apart in the source
Description: as §7, §8, §9
• Delivered: 5mg. Dilute and aliquote reference substrate to a concentration of 10 mM in pure DMSO. Endconcentration in well: c = 200 µM (= KM for Factor Xa)
as §3, §4, §10, §11
as §6, with “Graph” for “• Graph”, “parameters) Table 1. IC50 values of inventive inhibitors with respect to TMPRSS2, thrombin and Factor Xa” for “parameters)”

[6] = tested on: SARS-CoV2 WT; conditions: 2 h
[7] = target: T3, TMPRSS2 (Homo sapiens, UniProt O15393); assay: TMPRSS2 inhibition, IC50 (Table 1); assay type: biochemical; conditions: nonlinear regression, variable slope (four parameters)
[8] = tested on: pseudotyped particle LV(Luc)-CoV2 in CaCo-2 cells; assay: microbe, parasite or virus in culture; assay type: cell-based, SARS-CoV2; conditions: Severe acute respiratory syndrome coronavirus 2, 2 h incubation with inhibitor before transduction, luciferase activity at 48 h post transduction
[9] = target: T3, TMPRSS2; assay: TMPRSS2 inhibition, IC50 (Table 1); assay type: biochemical; conditions: nonlinear regression, variable slope (four parameters); remark: listed apart in the source
Text: Inhibitors were screened against TMPRSS2, thrombin and factor Xa.

[10] = tested on: SARS-CoV2 WT; assay: microbe, parasite or virus in culture; assay type: cell-based; conditions: Severe acute respiratory syndrome coronavirus 2

T2 sequence (P00742 235-488 limits assumed): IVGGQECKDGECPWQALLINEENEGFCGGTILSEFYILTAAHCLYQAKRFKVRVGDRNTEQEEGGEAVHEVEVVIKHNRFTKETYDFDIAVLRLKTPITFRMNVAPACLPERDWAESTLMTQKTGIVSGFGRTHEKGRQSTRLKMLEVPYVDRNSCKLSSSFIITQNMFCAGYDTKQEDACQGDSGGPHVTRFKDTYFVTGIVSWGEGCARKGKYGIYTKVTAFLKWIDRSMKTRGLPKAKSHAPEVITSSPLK
T2 sequence (P00742 41-179 partner limits assumed): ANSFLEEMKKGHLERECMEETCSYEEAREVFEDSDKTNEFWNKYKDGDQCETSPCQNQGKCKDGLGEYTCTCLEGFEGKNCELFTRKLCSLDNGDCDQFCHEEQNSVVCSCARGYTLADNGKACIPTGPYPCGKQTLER
T3 sequence (O15393 whole entry): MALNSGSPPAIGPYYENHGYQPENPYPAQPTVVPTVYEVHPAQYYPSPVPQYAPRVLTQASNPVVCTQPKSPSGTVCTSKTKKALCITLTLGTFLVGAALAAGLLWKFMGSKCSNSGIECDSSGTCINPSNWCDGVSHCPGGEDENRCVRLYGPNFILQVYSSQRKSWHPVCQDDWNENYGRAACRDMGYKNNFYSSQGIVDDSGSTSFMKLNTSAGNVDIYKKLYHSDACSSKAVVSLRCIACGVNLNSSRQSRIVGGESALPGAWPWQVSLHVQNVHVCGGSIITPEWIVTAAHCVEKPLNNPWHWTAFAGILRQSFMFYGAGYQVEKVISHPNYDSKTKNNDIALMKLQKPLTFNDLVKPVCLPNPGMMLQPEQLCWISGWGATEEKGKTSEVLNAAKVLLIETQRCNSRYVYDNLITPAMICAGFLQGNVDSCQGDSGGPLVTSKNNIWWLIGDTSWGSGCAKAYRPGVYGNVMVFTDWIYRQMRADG

Row | Compound | IC50 [2] | IC50 [3] | IC50 [4] | IC50 [5] | IC50 [6] | IC50 [7] | other results
1 | N=C(N)Nc1ccc(C(=O)Oc2ccc(CC(=O)O)cc2)cc1 [Ref.8, FOY 251] | 21.5 µM | – | – | – | – | – | IC50 [1]: > 100 µM
2 | CC(=O)N[C@@H](C)C(=O)N[C@@H](CCC(=O)O)C(=O)N[C@@H](CCC(N)=O)C(=O)N[C@@H](CCCNC(=N)N)C(=O)c1nc2ccccc2s1 [Compound 2, Ac-AEQR-kbt] | – | > 100 µM | 0.47 µM | 0.991 µM | 19 µM | 1.67 µM | –
3 | CC(=O)N[C@@H](CC(N)=O)C(=O)N[C@@H](CCC(=O)O)C(=O)N[C@@H](CCC(N)=O)C(=O)N[C@@H](CCCNC(=N)N)C(=O)c1nc2ccccc2s1 [Compound 6, Ac-NEQR-kbt] | – | > 100 µM | 1.4 µM | 8.14 µM | 34.2 µM | 1.19 µM | –
4 | CC[C@H](C)[C@H](NC(=O)[C@H](C)NC(=O)[C@H](CCC(=O)O)NC(=O)[C@H](CCC(=O)O)NC(=O)[C@H](CC(C)C)NC(=O)[C@H](CCCCN)NC(=O)[C@H](CCCCN)NC(=O)[C@H](CCSC)NC(=O)[C@H](CCC(=O)O)NC(=O)[C@H](Cc1ccc(O)cc1)NC(=O)[C@H](CCC(=O)O)NC(=O)[C@H](CC(C)C)NC(=O)[C@H](CC(=O)O)NC(=O)[C@H](CC(C)C)NC(=O)[C@H](Cc1ccccc1)NC(=O)[C@@H](NC(=O)[C@@H](NC(=O)[C@H](CC(N)=O)NC(=O)[C@@H](NC(=O)[C@H](CCC(N)=O)NC(=O)[C@H](CC(=O)O)NC(=O)[C@H](CC(C)C)NC(=O)[C@@H](N)CO)[C@@H](C)CC)C(C)C)[C@@H](C)O)C(=O)N[C@@H](CCCCN)C(=O)N[C@@H](CCCCN)C(=O)N[C@@H](CC(C)C)C(=O)N[C@@H](CCC(=O)O)C(=O)N[C@@H](CCC(=O)O)C(=O)N[C@@H](CO)C(=O)N[C@@H](Cc1ccc(O)cc1)C(=O)N[C@H](C(=O)N[C@@H](CC(=O)O)C(=O)N[C@@H](CC(C)C)C(=O)N[C@@H](CCCCN)C(=O)N[C@@H](CCC(=O)O)C(=O)N[C@@H](CC(C)C)C(=O)O)[C@@H](C)CC [Ref.9, EK1, reference compound] | – | – | 0.228 µM | – | – | – | –
5 | N=C(N)c1ccccc1 [Ref.4, Benzamidine] | > 100 µM | – | – | – | – | – | IC50 [8]: > 1000 µM; IC50 [9]: > 100 µM
6 | N=C(N)NCCC[C@H](NC(=O)[C@@H]1CCCN1C(=O)[C@H](N)Cc1ccccc1)C(=O)CCl [Ref.6, PPack] | 0.0745 µM | – | – | – | – | – | IC50 [9]: > 100 µM; IC50 [1]: 0.000268 µM
7 | CC(=O)N[C@@H](CCCNC(=N)N)C(=O)N[C@@H](CCC(=O)O)C(=O)N[C@@H](CS)C(=O)N[C@@H](CCCNC(=N)N)C(=O)c1nc2ccccc2s1 [Compound 7, Ac-RECR-kbt] | – | > 100 µM | – | 0.611 µM | – | 0.835 µM | –
8 | CC(=O)N[C@@H](CCCNC(=N)N)C(=O)N[C@@H](CCC(N)=O)C(=O)N[C@@H](CC(C)C)C(=O)N[C@@H](CCCNC(=N)N)C(=O)c1nc2ccccc2s1 [Compound 1, Ac-RQLR-kbt] | – | > 100 µM | 0.803 µM | 0.0471 µM | 11.1 µM | 1.26 µM | –
9 | [H]/N=C(/N)c1ccc(NCc2nc3cc(C(=O)N(CCC(=O)O)c4ccccn4)ccc3n2C)cc1 [Ref.2, Dabigatran] | – | – | – | – | – | – | IC50 [9]: > 100 µM
10 | CC(=O)N[C@@H](CCC(N)=O)C(=O)N[C@@H](CCC(N)=O)C(=O)N[C@H](C(=O)N[C@@H](CCCNC(=N)N)C(=O)c1nc2ccccc2s1)C(C)C [Compound 4, Ac-QQVR-kbt] | – | > 10 µM | 2.05 µM | 1.5 µM | 58.5 µM | 0.5 µM | –
11 | CC(=O)N[C@@H](CCC(=O)O)C(=O)N[C@@H](CCC(N)=O)C(=O)N1CCC[C@H]1C(=O)N[C@@H](CCCNC(=N)N)C(=O)c1nc2ccccc2s1 [Compound 5, Ac-EQPR-kbt] | – | > 100 µM | 2.1 µM | > 100 µM | – | 2.87 µM | –
12 | N=C(N)c1ccc(CNC(=O)[C@@H]2CCN2C(=O)[C@H](NCC(=O)O)C2CCCCC2)cc1 [Ref.7, Melagatran] | 0.216 µM | – | – | – | – | – | –
13 | CC(=O)NCC(=O)N[C@@H](CCC(N)=O)C(=O)N[C@@H](CCCNC(=N)N)C(=O)N[C@@H](CCCNC(=N)N)C(=O)c1nc2ccccc2s1 [Compound 3, Ac-GQRR-kbt] | – | > 100 µM | 1.3 µM | 22 µM | 20.1 µM | 0.332 µM | –
14 | CC(=O)N[C@@H](CC(C)C)C(=O)N[C@@H](CC(C)C)C(=O)N[C@H](C=O)CCCNC(=N)N [Ref.3, Leupeptin] | > 13.9 µM | – | – | – | – | – | IC50 [8]: 36.8 µM; IC50 [9]: > 27.6 µM; IC50 [1]: > 100 µM
15 | CN(C)C(=O)COC(=O)Cc1ccc(OC(=O)c2ccc(NC(=N)N)cc2)cc1 [Ref.5, Camostat mesylate] | 5.3 µM | – | – | – | – | – | IC50 [8]: 0.505 µM; IC50 [10]: 32.4 µM
16 | CC(=O)N[C@@H](CCCCN)C(=O)N[C@@H](CCC(N)=O)C(=O)N[C@@H](CC(C)C)C(=O)N[C@@H](CCCNC(=N)N)C(=O)c1nc2ccccc2s1 [Ref.1, Ac-KQLR-kbt, reference compound] | – | > 100 µM | 3.01 µM | 0.338 µM | 15.6 µM | 3.43 µM | –
